Among the data in patent US8552199B2, “Substituted indanes, method for the production thereof, and use thereof as drugs” (Sanofi, priority 2009, dated 2013) are IC50 values, retold here.

The target of this assay is human MCH receptor (Homo sapiens (Human), UniProt Q99705). The assay can be described thus: calcium mobilization assay (FLIPR); functional IC50 values of MCH1R antagonists. The assay is classed as cell-based. To be noted: recombinant HEK293 cell line expressing the human MCH receptor, cellular calcium flux after addition of agonist (MCH). From the text:
Influence on the MCH Receptor in vitro; Determination of Functional IC50 Values of MCH1R Antagonists
Cloning of the cDNA for the human MCH receptor, preparation of a recombinant HEK293 cell line which expresses the human MCH receptor, and functional measurements with the recombinant cell line took place in analogy to the description by Audinot et al. (J. Biol. Chem. 2001, 276, 13554-13562). A difference from the reference was, however, the use of the plasmid pEAK8 from EDGE Biosystems (USA) for the construction of the expression vector. The host used for the transfection was a transformed HEK cell line named “PEAK Stable Cells” (likewise from EDGE Biosystems). Functional measurements of the cellular calcium flux after addition of agonist (MCH) in the presence of ligand of the invention took place with the aid of the FLIPR apparatus from Molecular Devices (USA), using protocols of the apparatus manufacturer. The compounds of the invention show a significant inhibition (>30%) of the signal induced by the agonist at a concentration of 100 μM, preferably at 10 μM, particularly preferably at 1 μM, very particularly preferably at 100 nM and very very particularly preferably at 10 nM.
On the technique in general: Calcium flux is commonly read through the fluorescence of an indicator in the cells.

The structures appear in SMILES notation.

human MCH receptor, sequence (Q99705 whole entry): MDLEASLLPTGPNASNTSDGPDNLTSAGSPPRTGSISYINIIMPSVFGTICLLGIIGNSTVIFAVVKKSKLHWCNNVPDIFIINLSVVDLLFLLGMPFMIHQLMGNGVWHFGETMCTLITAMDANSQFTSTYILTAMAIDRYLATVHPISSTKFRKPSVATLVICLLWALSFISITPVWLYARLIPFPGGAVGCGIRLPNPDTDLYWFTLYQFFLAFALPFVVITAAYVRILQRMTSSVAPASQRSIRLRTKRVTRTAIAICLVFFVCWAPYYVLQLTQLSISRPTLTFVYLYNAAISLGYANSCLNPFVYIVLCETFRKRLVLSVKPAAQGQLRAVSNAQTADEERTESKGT

For the molecule `CN(C(=O)c1ccc(OCC2CC2)cc1)[C@@H]1Cc2ccc(CN3CCC(C(C)(C)O)CC3)cc2C1` [Example 1-05], the IC50 (as a rule, the concentration needed to halve the response being measured) worked out at 0.294 µM.

`CN(C(=O)c1ccc(OCC2CC2)cc1)[C@@H]1Cc2ccc(CN3CCCCCC3)cc2C1` [Example 1-09]: the IC50 was 0.139 µM.

Take `CN(C(=O)c1ccc(OCC2CC2)cc1)[C@@H]1Cc2ccc(CNCC3CCOCC3)cc2C1` [Example 1-15]: the IC50 amounted to 0.123 µM.

Take `CN(C(=O)c1ccc(OCC2CC2)cc1)[C@@H]1Cc2ccc(CNCC(C)(C)C)cc2C1` [Example 1-23]: the IC50 came to 0.144 µM.

On to `COCCCNCc1ccc2c(c1)C[C@H](N(C)C(=O)c1ccc(OCC3CC3)cc1)C2` [Example 1-27], for which the IC50 was 0.117 µM.

Turning to `CN(C(=O)c1ccc(OCC2CC2)cc1)[C@@H]1Cc2ccc(CN3CCC3)cc2C1` [Example 1-31], the half-inhibitory concentration (IC50) is 0.111 µM.

`CCN(C)Cc1ccc2c(c1)C[C@H](N(C)C(=O)c1ccc(OCC3CC3)cc1)C2` [Example 1-32]: the IC50 stood at 0.147 µM.

Consider `CN(C(=O)c1ccc(OCC2CC2)cc1)[C@@H]1Cc2ccc(CNCC3(C)CC3)cc2C1` [Example 1-34], for which the IC50 was 0.121 µM.

With `CC[C@H](C)NCc1ccc2c(c1)C[C@H](N(C)C(=O)c1ccc(OCC3CC3)cc1)C2` [Example 1-36], the IC50 was 0.198 µM.

With `CN(C(=O)c1ccc(OCC2CC2)cc1)[C@@H]1Cc2ccc(CN3CC[C@H](O)C3)cc2C1` [Example 1-38], the concentration for half-maximal inhibition (IC50) came to 0.115 µM.

For the molecule `CC1(C)CCN(Cc2ccc3c(c2)C[C@H](NC(=O)c2ccc(OC[C@@H]4CCCO4)cc2)C3)CC1` [Example 1-40], the concentration for half-maximal inhibition (IC50) was 0.208 µM.

On to `CC(C)(C)CNCc1ccc2c(c1)C[C@H](NC(=O)c1ccc(OC[C@@H]3CCCO3)cc1)C2` [Example 1-42], for which the concentration for half-maximal inhibition (IC50) turned out to be 0.222 µM.

Regarding `CN(C(=O)c1ccc(OC[C@@H]2CCCO2)cc1)[C@@H]1Cc2ccc(CNCC(C)(C)C)cc2C1` [Example 1-46], the IC50 was 0.144 µM.

In the case of `CN(C(=O)c1ccc(OC[C@@H]2CCCO2)cc1)[C@@H]1Cc2ccc(CN3CC4CCC3CC4)cc2C1` [Example 1-47], the IC50 amounted to 0.229 µM.

`O=C(N[C@@H]1Cc2ccc(CN3CCCCCC3)cc2C1)c1ccc(OC[C@@H]2CCCO2)cn1` [Example 1-50]: the IC50 was determined as 0.766 µM.

For the molecule `O=C(N[C@@H]1Cc2ccc(CNCCC3CC3)cc2C1)c1ccc(OCC2CC2)cn1` [Example 1-55], the IC50 was found to be 0.848 µM.

`CC1(CNCc2ccc3c(c2)C[C@H](NC(=O)c2ccc(OCC4CC4)cn2)C3)CC1` [Example 1-58]: the IC50 was 1.04 µM.

As for `CCCCOc1ccc(C(=O)N(C)[C@@H]2Cc3ccc(CN4C[C@@H]5CC[C@H]4C5)cc3C2)nc1` [Example 1-62], the IC50 stood at 0.173 µM.

With `CCCCOc1ccc(C(=O)N(C)[C@@H]2Cc3ccc(CNC[C@@H]4CCCO4)cc3C2)nc1` [Example 1-66], the IC50 stood at 0.194 µM.

`CCCCOc1ccc(C(=O)N(C)[C@@H]2Cc3ccc(CNCC4(C)CCOCC4)cc3C2)nc1` [Example 1-72]: the IC50 turned out to be 0.147 µM.

Regarding `CN(C(=O)c1ccc(OCC2CC2)cn1)[C@@H]1Cc2ccc(CN3CCCCC3)cc2C1` [Example 1-81], the concentration for half-maximal inhibition (IC50) was found to be 0.179 µM.

With `O=C1c2ccc(OC[C@@H]3CCCO3)cc2CCN1[C@@H]1Cc2ccc(CNC3CCCCC3)cc2C1` [Example 1-90], the half-inhibitory concentration (IC50) turned out to be 0.777 µM.

Consider `CCCCOc1ccc(C(=O)N(C)[C@@H]2Cc3ccc([C@H]4CCCN4)cc3C2)cc1` [Example 2, 4-Butoxy-N-methyl-N-((R)-(R)-5-pyrrolidin-2-ylindan-2-yl)benzamide], for which the IC50 is 0.255 µM.

For the molecule `CN1CCCC1c1ccc2c(c1)C[C@H](N(C)C(=O)c1ccc(OCC3CC3)cn1)C2` (stereo partly drawn) [Example 3-1, N-Methyl-N-[(R)-5-(1-methylpyrrolidin-2-yl)indan-2-yl]-5-cyclopropylmethoxypyridine-2-carboxamide], the IC50 was 1.14 µM.
